Test results as given in patent publication US10988474B2, “Compounds acting at multiple prostaglandin receptors giving a general anti-inflammatory response” (ALLERGAN, INC., priority 2011, dated 2021).

How the values were obtained:
Format in all cases: cell-based
[1] = biological target: T1, human prostanoid EP4 receptor (Homo sapiens, UniProt P35408); assay: FLIPR Ca2+ signaling PG antagonist assay, EP4 stable cell line; conditions: HEK-293 EBNA cells, human recombinant EP4 with chimeric Gqs; standard agonist PGE2
T1 construct: expressed in transfected cells
T1 sequence (P35408 whole entry): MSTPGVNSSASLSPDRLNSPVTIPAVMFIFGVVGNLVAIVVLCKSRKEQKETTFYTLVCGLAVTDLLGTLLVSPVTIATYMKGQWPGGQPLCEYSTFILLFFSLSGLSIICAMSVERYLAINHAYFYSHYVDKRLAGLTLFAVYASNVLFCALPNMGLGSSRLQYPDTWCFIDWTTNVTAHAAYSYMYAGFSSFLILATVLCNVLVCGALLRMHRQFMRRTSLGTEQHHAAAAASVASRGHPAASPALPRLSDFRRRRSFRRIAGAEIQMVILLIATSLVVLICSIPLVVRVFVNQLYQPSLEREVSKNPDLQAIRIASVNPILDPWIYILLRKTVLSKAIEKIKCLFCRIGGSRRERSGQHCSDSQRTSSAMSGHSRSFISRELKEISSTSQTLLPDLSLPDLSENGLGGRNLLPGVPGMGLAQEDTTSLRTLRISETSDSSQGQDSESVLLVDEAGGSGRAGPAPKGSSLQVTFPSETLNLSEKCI
Procedure: (§1) The above compounds were tested for PG antagonist activity as follows using human recombinant prostanoid receptor (DP1, EP1-4, FP, IP and TP) stable cell lines: In order to measure the response of Gs and Gi coupled prostanoid receptors as a Ca^2+ signal, chimeric G protein cDNAs were used. Stable cell lines over-expressing human prostanoid DP1, EP1-4, FP, IP, and TP receptors were established as follows:
(§2) Briefly, human prostanoid DP1, EP2, and EP4 receptor cDNAs were co-transfected with chimeric Gqs cDNA containing a haemagglutanin (HA) epitope; human prostanoid EP3 receptors were co-transfected with chimeric Gqi-HA; human EP1, FP, IP, and TP receptor cDNAs were expressed with no exogenous G-proteins. Gqs and Gqi chimeric cDNAs (Molecular Devices, Sunnyvale, Calif., U.S.A.), as well as cDNAs of prostanoid receptors, were cloned into a pCEP4 vector with a hygromycin B selection marker. Transfection into HEK-293 EBNA (Epstein-Barr virus nuclear antigen) cells was achieved by the FuGENE 6 transfection Reagent (Roche Applied Science, Indianapolis, Ind., USA). Stable transfectants were selected according to hygromycin resistance. Because Gqs and Gqi contained an HA epitope, G-protein expression was detected by Western blotting analysis using anti-mouse HA monoclonal antibody and horseradish peroxidase (HRP)-conjugated secondary antibody, while functional expression of prostanoid receptors was detected by FLIPR screening (Matias et al., 2004). These stable cell lines were validated using previously published antagonists at 10 μM against serial dilutions of standard agonists by FLIPR functional assays for Ca^2+ Signaling (as described below).
(§3) Ca^2+ signaling studies were performed using a FLIPR TETRA system (Molecular Devices, Sunnyvale, Calif., USA) in the 384-format. This is a high-throughput instrument for cell-based assays to monitor Ca^2+ signaling associated with GPCRs and ion channels. Cells were seeded at a density of 5×10^4 cells/well in BioCoat poly-D-lysine coated, black wall, clear bottom 384-well plates (BD Biosciences, Franklin lakes, NJ, USA) and allowed to attach overnight in an incubator at 37° C. The cells were then washed twice with HBSS-HEPES buffer (Hanks' balanced salt solution without bicarbonate and phenol red, 20 mM HEPES, pH 7.4) using an ELx405 Select CW Microplate Washer (BioTek, Winooski, Vt., USA). After 60 min of dye-loading in the dark using the Ca^2+-sensitive dye Fluo-4AM (Invitrogen, Carlsbad, Calif., USA), at a final concentration of 2×10^−6M, the plates were washed 4 times with HBSS-HEPES buffer to remove excess dye and leaving 50 μl of buffer in each well. The plates were then placed in the FLIPR TETRA instrument and allowed to equilibrate at 37° C. Compounds were added in a 25 μl volume to each well to give final concentrations of 0.1 μM, 0.3 μM, 1 μM, 3 μM, 10 μM, and 30 μM; or 0.067 μM, 0.1 μM, 0.2 μM, 0.3 μM, 0.67 μM, and 1 μM for cells over-expressing TP receptors. After 4.5 minutes, a 7-point serial dilution of the standard agonist for the corresponding receptor, in a 25 μl volume was injected at the final concentrations from 10^−11M to 10^−5M in 10-fold serial dilution increments for cells expressing human recombinant DP1, EP1, EP2, EP3, EP4, FP, and IP receptors. The dose range for the standard agonist for human recombinant TP receptors was from 10^−12M to 10^−6M. HBSS-HEPES buffer was used as the negative control for the standard agonists. Cells were excited with LED (light emitting diode) excitation at 470-495 nm and emission was measured through an emission filter at 515-575 nm. Assay plates were read for 3.5 minutes using the FLIPR^TETRA. The peak increase in fluorescence intensity was recorded for each well. On each plate, negative controls, dose response of positive controls, and co-treatments of antagonist-agonist for each dose were in triplicates. Standard agonists were as follows: DP=BW 245C, EP1-EP4=PGE2, FP=17-phenyl-PGF2α, IP=Cicaprost, and TP=U-46619. […]

[2] = biological target: T2, human prostanoid EP3 receptor (Homo sapiens, UniProt P43115); assay: FLIPR Ca2+ signaling PG antagonist assay, EP3 stable cell line; conditions: HEK-293 EBNA cells, human recombinant EP3 with chimeric Gqi; standard agonist PGE2
T2 construct: expressed in transfected cells
T2 sequence (P43115 1-390): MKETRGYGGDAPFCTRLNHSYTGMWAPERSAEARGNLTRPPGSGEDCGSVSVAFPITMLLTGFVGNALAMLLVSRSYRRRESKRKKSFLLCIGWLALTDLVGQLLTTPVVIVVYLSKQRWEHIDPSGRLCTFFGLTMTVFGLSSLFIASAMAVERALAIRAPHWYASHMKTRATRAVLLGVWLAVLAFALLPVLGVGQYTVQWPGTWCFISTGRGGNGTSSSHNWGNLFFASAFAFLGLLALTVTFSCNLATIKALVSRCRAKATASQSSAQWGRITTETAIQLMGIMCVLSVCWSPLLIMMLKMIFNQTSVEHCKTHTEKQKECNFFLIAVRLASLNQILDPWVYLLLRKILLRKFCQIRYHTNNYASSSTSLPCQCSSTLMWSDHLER
Procedure: as §1, §2, §3

[3] = biological target: T3, human prostanoid IP receptor (Homo sapiens, UniProt P43119); assay: FLIPR Ca2+ signaling PG antagonist assay, IP stable cell line; conditions: HEK-293 EBNA cells, human recombinant IP, no exogenous G-protein; standard agonist Cicaprost
T3 construct: expressed in transfected cells
T3 sequence (P43119 whole entry): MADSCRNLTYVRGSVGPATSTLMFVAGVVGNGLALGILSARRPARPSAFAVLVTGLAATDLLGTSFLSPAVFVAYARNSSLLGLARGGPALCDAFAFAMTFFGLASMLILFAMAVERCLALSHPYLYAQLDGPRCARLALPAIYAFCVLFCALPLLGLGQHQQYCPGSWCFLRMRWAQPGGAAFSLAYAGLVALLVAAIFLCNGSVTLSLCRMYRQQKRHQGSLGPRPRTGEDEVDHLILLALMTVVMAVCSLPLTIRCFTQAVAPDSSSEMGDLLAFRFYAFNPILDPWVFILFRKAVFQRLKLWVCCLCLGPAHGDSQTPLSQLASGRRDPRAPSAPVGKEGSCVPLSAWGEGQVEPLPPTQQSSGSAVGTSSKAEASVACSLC
Procedure: as §1, §2, §3

[4] = biological target: T4, human prostanoid EP2 receptor (Homo sapiens, UniProt P43116); assay: FLIPR Ca2+ signaling PG antagonist assay, EP2 stable cell line; conditions: HEK-293 EBNA cells, human recombinant EP2 with chimeric Gqs; standard agonist PGE2
T4 construct: expressed in transfected cells
T4 sequence (P43116 whole entry): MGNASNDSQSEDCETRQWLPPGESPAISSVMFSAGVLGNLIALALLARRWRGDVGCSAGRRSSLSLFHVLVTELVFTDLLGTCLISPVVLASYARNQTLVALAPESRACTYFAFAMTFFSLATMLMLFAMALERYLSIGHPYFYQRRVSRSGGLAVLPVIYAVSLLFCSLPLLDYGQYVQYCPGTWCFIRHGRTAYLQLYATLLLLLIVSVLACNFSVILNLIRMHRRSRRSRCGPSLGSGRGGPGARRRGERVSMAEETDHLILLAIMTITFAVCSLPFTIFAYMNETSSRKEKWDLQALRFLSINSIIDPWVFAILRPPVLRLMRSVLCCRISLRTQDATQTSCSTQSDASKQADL
Procedure: as §1, §2, §3

[5] = biological target: T5, human prostanoid FP receptor (Homo sapiens, UniProt P43088); assay: FLIPR Ca2+ signaling PG antagonist assay, FP stable cell line; conditions: HEK-293 EBNA cells, human recombinant FP, no exogenous G-protein; standard agonist 17-phenyl-PGF2α
T5 construct: expressed in transfected cells
T5 sequence (P43088 whole entry): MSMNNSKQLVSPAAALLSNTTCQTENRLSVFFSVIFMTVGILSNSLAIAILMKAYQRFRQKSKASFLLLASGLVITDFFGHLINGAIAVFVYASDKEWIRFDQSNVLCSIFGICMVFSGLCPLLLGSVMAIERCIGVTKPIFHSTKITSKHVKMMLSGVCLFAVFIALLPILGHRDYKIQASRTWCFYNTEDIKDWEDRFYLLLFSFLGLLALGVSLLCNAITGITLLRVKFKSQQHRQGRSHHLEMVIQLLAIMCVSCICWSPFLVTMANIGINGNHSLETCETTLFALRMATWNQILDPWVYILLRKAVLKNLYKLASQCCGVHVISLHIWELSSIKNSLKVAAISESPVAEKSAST
Procedure: as §1, §2, §3

[6] = biological target: T6, human prostanoid TP receptor (Homo sapiens, UniProt P21731); assay: FLIPR Ca2+ signaling PG antagonist assay, TP stable cell line; conditions: HEK-293 EBNA cells, human recombinant TP, no exogenous G-protein; standard agonist U-46619
T6 construct: expressed in transfected cells
T6 sequence (P21731 1-343): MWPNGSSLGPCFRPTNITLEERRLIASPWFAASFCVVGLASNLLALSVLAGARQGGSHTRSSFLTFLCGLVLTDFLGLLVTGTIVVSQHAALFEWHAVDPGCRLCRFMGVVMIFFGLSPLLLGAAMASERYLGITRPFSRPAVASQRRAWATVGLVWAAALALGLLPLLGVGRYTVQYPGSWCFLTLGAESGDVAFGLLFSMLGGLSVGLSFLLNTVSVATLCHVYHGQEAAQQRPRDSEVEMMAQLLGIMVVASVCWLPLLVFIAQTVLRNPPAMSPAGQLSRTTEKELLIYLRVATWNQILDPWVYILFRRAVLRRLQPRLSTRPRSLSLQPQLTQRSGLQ
Procedure: as §1, §2, §3

| Structure (SMILES) | Kb [1] [nM] | Kb [2] [nM] | Kb [3] [nM] | Kb [4] [nM] | Kb [5] [nM] | Kb [6] [nM] |
| --- | --- | --- | --- | --- | --- | --- |
| Cc1nn(Cc2cc(C(F)(F)F)ccc2OCC(C)C)c2ccc(C(=O)O)cc12 [Example 25, 1-(2-Isobutoxy-5-Trifluoromethyl-Benzyl)-3-Methyl-1H-Indazole-5-Carboxylic Acid] | 160 | 4500 | 1030 | 9300 | 180 | 50 |
| O=C(O)c1ccc2c(cnn2Cc2cc(Br)ccc2OCC2CC2)c1 [Example 15, 1-(5-Bromo-2-Cyclopropylmethoxy-Benzyl)-1H-Indazole-5-Carboxylic Acid] | 200 | 8400 | 1800 | 3300 | 130 | 20 |
| CC(C)COc1ccc(Cl)cc1Cn1cc2c(C(=O)O)cccc2n1 [Example 37, 2-(5-Chloro-2-Isobutoxy-Benzyl)-2H-Indazole-4-Carboxylic Acid] | 700 | 3400 | ≥ 10000 | ≥ 10000 | ≥ 10000 | 200 |
| O=C(O)c1ccc2c(cnn2Cc2cc(Br)ccc2OCC2CCCC2)c1 [Example 14, 1-(5-Bromo-2-Cyclopentylmethoxy-Benzyl)-1H-Indazole-5-Carboxylic Acid] | 15 | 1500 | 340 | 400 | 30 | 600 |
| CC(C)COc1c(F)cc(Cl)cc1Cn1ncc2cc(C(=O)O)ccc21 [Example 47, 1-(5-Chloro-3-Fluoro-2-Isobutoxy-Benzyl)-1H-Indazole-5-Carboxylic Acid] | ≥ 10000 | ≥ 10000 | 4800 | ≥ 10000 | 4700 | ≥ 10000 |
| CCC(CC)COc1ccc(Cl)cc1Cn1ncc2cc(C(N)=O)ncc21 [Example 62, 1-[5-Chloro-2-(2-Ethyl-Butoxy)-Benzyl]-1H-Pyrazolo[3,4-C]Pyridine-5-Carboxylic Acid Amide] | ≥ 10000 | ≥ 10000 | ≥ 10000 | ≥ 10000 | ≥ 10000 | ≥ 10000 |
| O=C(O)c1ccc2cn(Cc3cc(Br)ccc3OCC3CCCC3)nc2c1 [Example 45, 2-(5-Bromo-2-Cyclopentylmethoxy-Benzyl)-2H-Indazole-6-Carboxylic Acid] | 2000 | ≥ 10000 | 7000 | ≥ 10000 | 1400 | 80 |
| Cc1cc2cc(C(=O)O)ccc2n1Cc1cc(Br)ccc1OCC(C)C [Example 66, 1-(5-Bromo-2-Isobutoxy-Benzyl)-2-Methyl-1H-Indole-5-Carboxylic Acid] | 1400 | ≥ 10000 | 4600 | ≥ 10000 | 23 | 320 |
| Cc1nn(Cc2cc(Br)ccc2OCC(C)C)c2ccc(C(=O)O)cc12 [Example 21, 1-(5-Bromo-2-Isobutoxy-Benzyl)-3-Methyl-1H-Indazole-5-Carboxylic Acid] | 70 | 2200 | 900 | 3500 | 30 | 13 |
| CCC(CC)COc1ccc(Cl)cc1Cn1ncc2ccc(C(=O)O)cc21 [Example 46, 1-[5-Chloro-2-(2-Ethyl-Butoxy)-Benzyl]-1H-Indazole-6-Carboxylic Acid] | ≥ 10000 | ≥ 10000 | ≥ 10000 | ≥ 10000 | ≥ 10000 | 150 |
| CC(C)COc1ccc(Br)cc1Cn1ncc2ccc(C(=O)O)cc21 [Example 42, 1-(5-Bromo-2-Isobutoxy-Benzyl)-1H-Indazole-6-Carboxylic Acid] | 1800 | 1900 | 3400 | ≥ 10000 | 900 | 20 |
| Cc1nn(Cc2cc(Cl)ccc2OCC(C)C)c2ccc(C(=O)O)cc12 [Example 24, 1-(5-Chloro-2-Isobutoxy-Benzyl)-3-Methyl-1H-Indazole-5-Carboxylic Acid] | 150 | 2440 | 1430 | 4500 | 40 | 80 |
| CCC(CC)COc1ccc(Br)cc1Cn1cnc2cc(C(=O)O)ccc21 [Example 78, 1-[5-Bromo-2-(2-Ethyl-Butoxy)-Benzyl]-1H-Benzoimidazole-5-Carboxylic Acid] | 35 | ≥ 10000 | 3000 | ≥ 10000 | 800 | 16 |
| CC(C)COc1ccc(Cl)cc1Cn1cc2cc(C(=O)O)ccc2n1 [Example 16, 2-(5-Chloro-2-Isobutoxy-Benzyl)-2H-Indazole-5-Carboxylic Acid] | 600 | 4000 | 6600 | ≥ 10000 | 3000 | 400 |
| Cc1nn(Cc2cc(Cl)ccc2OCC(C)C)c2ncc(C(=O)O)cc12 [Example 61, 1-(5-Chloro-2-Isobutoxy-Benzyl)-3-Methyl-1H-Pyrazolo[3,4-B]Pyridine-5-Carboxylic Acid] | 760 | ≥ 10000 | 1750 | ≥ 10000 | 1500 | 300 |
| O=C(O)c1ccc2c(cnn2Cc2cc(Cl)ccc2OCC2CCCC2)c1 [Example 10, 1-(5-Chloro-2-Cyclopentylmethoxy-Benzyl)-1H-Indazole-5-Carboxylic Acid] | 20 | 1100 | 400 | 500 | 30 | 20 |
